Experimental data taken from US20250186545A1, “RECOMBINANT PROTEIN FOR ULCERATIVE COLITIS TREATMENT OR PREVENTION AND COMPOSITION FOR ULCERATIVE COLITIS TREATMENT OR PREVENTION CONTAINING THE SAME” (NEXEL CO., LTD., priority 2021, published 2025).

Assays:
Assay type in all cases: in vivo, C57BL/6 mice
[1] = tested on: DSS-induced colitis model; test: Histopathology (H&E) of large intestinal mucosa: erosion and epithelial hyperplasia; study of FIG. 10
From the text: (§1) First, in the case of an animal model for mice in which ulcerative colitis is induced using DSS (Dextran sulfate sodium), bloody stool, weight loss, large intestinal shrinkage, and mucosal ulcers occur, and histologically, damage occurs in large intestinal epithelial cells, so that the intestinal glands of an epithelial layer fall off without inflammation. Further, the amount of f various immune substances in the mucosa increases to cause intestinal inflammation. For this reason, DSS has been widely used to create experimental animal models.
(§2) Specifically, in a DSS-induced colitis model in which 9-week-old female C57BL/6 mice were allowed to freely ingest 2% DSS, an experiment was conducted assuming that one C57BL/6 mouse ingested 5 ml of water containing 2% DSS per day.
(§3) For 7 days, only water containing 2% DSS without any treatment was provided to the mice, and for 5 days after the 7th day, water without 2% DSS was provided, and simultaneously, various comparative substances, including NP-011 protein, were fed at various concentrations by injection into the caudal vein, thereby creating an animal model of inducing ulcerative colitis.
(§4) Lastly, as shown in FIG. 6 and FIG. 10, a third experimental group ‘NP-011’ that is an experimental group was supplied with only water containing 2% DSS from day 0 to day 7, was supplied with plain water from day 7 to day 14, and NP-011 recombinant protein of 320 μg/kg was administered once a day for 5 days starting from day 7, a total of 5 times.
Form the results in FIG. 7 and Table 1, it can be confirmed that the degrees of crypt damage, inflammation severity, and inflammation extent in the mucosa were reduced in the order of MFG-E8 160 μg/kg, NP-011 80 μg/kg, and NP-011 320 μg/kg compared with the positive control group after induction of ulcerative colitis, so that the overall degree of damage to the large intestinal mucosa was lowered.
Then, the tissue fixed with 4% paraformaldehyde was subjected to staining (Hematoxylin & Eosin stain) and histopathological examination by KP&T Co., Ltd. The pathological interpretation was made with reference to INHAND. The degrees of erosion and epithelial hyperplasia in the mucosa of the large intestinal tissue were measured for comparison of lesions in the respective animal model groups, and results thereof are shown in FIG. 11 and Table 2. (Reference-J Toxicol Pathol 2016; 29 (1 Suppl)): 1S-124S)

[2] = tested on: DSS-induced colitis model; test: Body weight change, study of FIG. 10 (FIG. 12, Tables 4 and 5); settings: for Change of original weight: AD group
From the text: as §1, §2, §3
Lastly, as shown in FIG. 6 and FIG. 10, a third experimental group ‘NP-011’ that is an experimental group was supplied with only water containing 2% DSS from day 0 to day 7, was supplied with plain water from day 7 to day 14, […] for 5 days starting from day 7, a total of 5 times.
In addition, increase or decrease in body weight was analyzed on the basis of the original body weight, and the level of weight increase or decrease compared with the positive control group was also analyzed.

[3] = tested on: DSS-induced colitis model; test: Histopathology (H&E) of large intestinal mucosa: crypt damage, inflammation severity, inflammation extent; study of FIG. 6
From the text: First, in the case of an animal model for mice in which ulcerative colitis is induced using DSS (Dextran sulfate sodium), bloody stool, weight loss, large intestinal shrinkage, and mucosal ulcers occur, and histologically, damage occurs in large intestinal epithelial cells, so that the intestinal glands of an epithelial layer fall off without inflammation. Further, the amount of f various immune substances in the mucosa increases to cause intestinal inflammation. For this reason, DSS has been widely used to create experimental animal models. Specifically, in a DSS-induced colitis model in which 9-week-old female C57BL/6 mice were allowed to freely ingest 2% DSS, an experiment was conducted assuming that one C57BL/6 mouse ingested 5 ml of water containing 2% DSS per day. For 7 days, only water containing 2% DSS without any treatment was provided to the mice, and for 5 days after the 7th day, water without 2% DSS was provided, and simultaneously, various comparative substances, including NP-011 protein, were fed at various concentrations by injection into the caudal vein, thereby creating an animal model of inducing ulcerative colitis. […] Lastly, as shown in FIG. 6 and FIG. 10, a third experimental group 'NP-011' that is an experimental group was supplied with only water containing 2% DSS from day 0 to day 7, was supplied with plain water from day 7 to day 14, and NP-011 recombinant protein of 320 μg/kg was administered once a day for 5 days starting from day 7, a total of 5 times. First, using the animal models corresponding to the 'NTC' control group, the 'UC CONTROL' control group, the 'MFG-E8' experimental group, the 'NP-011' second experimental group, and the 'NP-011' third experimental group, for each animal model group, the cecum was removed from a large intestinal tissue, and 1 to 2 cm of the proximal and 1 cm of the anus were secured and fixed with 4% paraformaldehyde. Then, the tissue fixed with 4% paraformaldehyde was subjected to staining (Hematoxylin & Eosin stain) and histopathological examination by KP&T Co., Ltd. The pathological interpretation was made with reference to […] (International Harmonization of Nomenclature and Diagnostic Criteria for Lesions) which is an international standard toxicology glossary. The degrees of crypt damage, inflammation severity, and inflammation extent in the mucosa of the large intestinal tissue were measured for comparison in the respective animal model groups, and results thereof are shown in FIG. 7 and Table 1. (Reference-J Toxicol Pathol 2016; 29 (1 Suppl): 1S-[…])

[4] = tested on: DSS-induced colitis model; test: Body weight change, study of FIG. 6 (FIG. 8, Table 3); settings: MFG-E8 160 μg/kg
From the text: as §1, §2, §3, §4
First, using the animal models corresponding to the ‘NTC’ control group, the ‘UC CONTROL’ control group, the ‘MFG-E8’ experimental group, the ‘NP-011’ second experimental group, and the ‘NP-011’ third experimental group, body weight was measured daily for each animal model group before drug administration to reduce errors due to the administration.
In addition, increase or decrease in body weight was analyzed compared with the positive control group, and comprehensive results thereof are shown in FIG. 8 and Table 3.

[5] = tested on: DSS-induced colitis model; test: Colon length, study of FIG. 6 (FIG. 9); settings: MFG-E8 160 μg/kg; 3 days after the last administration
From the text: as §1, with “models. […]” for “models.”
First, using the animal models corresponding to the \NTC′ control group, the ‘UC CONTROL’ control group, the ‘MFG-E8’ experimental group, the ‘NP-011’ second experimental group, and the ‘NP-011’ third experimental group, the large intestine was extracted separately for each animal model group, the colon length was analyzed, and the results thereof are shown in FIG. 9.
Specifically, to analyze the colon length, each animal model was euthanized by gradual increase in carbon dioxide 3 days after the last administration, and the large intestine was extracted. The extracted large intestine was photographed with a length measuring device (30 cm ruler), and the obtained photograph was quantified using image J.

[6] = MGF-E8 160 μg/kg, once a day x5 from day 7

In the case of Adalimumab, the Epithelial hyperplasia score ([1]; AD 4 mg/kg) is reported as 4.2, the “Erosion, mucosa” value ([1]; AD 4 mg/kg) is reported as 0.8 and the Group total average ([1]; AD 4 mg/kg, erosion + hyperplasia) is reported as 5.0. For the same molecule, the “degrees of erosion and epidermal hyperplasia in the mucosa of large intestinal tissues” value ([1]; Adalimumab group) was “reduced”, the “Dunnett's multiple comparisons test UC VS AD, Summary (body weight)” value ([2]; 10 days) was “** (** P<0.01)” and the weight loss ([2]; Adalimumab group, Cyclosporine A group, NP-011 groups (20 to 80 μg/kg)) was “weight loss was observed”. For the same molecule, the “Change of original weight” value ([2]; Day 1) was 0.161 g, the “Change of original weight” value ([2]; Day 2) was 0.237 g and the “Change of original weight” value ([2]; Day 3) was 0.438 g. The “Change of original weight” value ([2]; Day 4) was 0.411 g, the “Change of original weight” value ([2]; Day 5) was -0.217 g and the “Change of original weight” value ([2]; Day 6) was -0.846 g. The “Change of original weight” value ([2]; Day 7) was -1.464 g, the “Change of original weight” value ([2]; Day 8) was -1.702 g and the “Change of original weight” value ([2]; Day 9) was -1.683 g. The “Change of original weight” value ([2]; Day 10) was -1.444 g, the “Dunnett's multiple comparisons test UC VS AD, Summary (body weight)” value ([2]; Day 11) was “**** (**** P<0.0001)” and the “Change of original weight” value ([2]; Day 11) was -0.471 g. For the same molecule, the “Dunnett's multiple comparisons test UC VS AD, Summary (body weight)” value ([2]; Day 12) was “**** (**** P<0.0001)”, the “Change of original weight” value ([2]; Day 12) was -0.035 g and the “Dunnett's multiple comparisons test UC VS AD, Summary (body weight)” value ([2]; Day 13) was “**** (**** P<0.0001)”. The “Change of original weight” value ([2]; Day 13) was -0.467 g.

B1: milk fat globule-EGF factor 8 (protein, UniProt Q08431 24-387, looked up)
Lactadherin: LDICSKNPCHNGGLCEEISQEVRGDVFPSYTCTCLKGYAGNHCETKCVEPLGLENGNIANSQIAASSVRVTFLGLQHWVPELARLNRAGMVNAWTPSSNDDNPWIQVNLLRRMWVTGVVTQGASRLASHEYLKAFKVAYSLNGHEFDFIHDVNKKHKEFVGNWNKNAVHVNLFETPVEAQYVRLYPTSCHTACTLRFELLGCELNGCANPLGLKNNSIPDKQITASSSYKTWGLHLFSWNPSYARLDKQGNFNAWVAGSYGNDQWLQVDLGSSKEVTGIITQGARNFGSVQFVASYKVAYSNDSANWTEYQDPRTGSSKIFPGNWDNHSHKKNLFETPILARYVRILPVAWHNRIALRLELLGC
notes: milk fat globule-EGF factor 8 (MFG-E8) protein, comparator
With B1 the “degrees of crypt damage, inflammation severity, and inflammation extent in the mucosa compared with the positive control group” value ([3]; MFG-E8 160 μg/kg) was “reduced”, the “Crypt Damage” value [3, 6] was 2.9 and the “Inflammation Extent” value [3, 6] was 1.2. For the same molecule, the “Inflammation Severity” value ([3]; MGF-E8 160 μg/kg, once a day x5 from day 7, caudal vein) was 1.1, the Group total average ([3]; MGF-E8 160 μg/kg, sum of severity, extent, crypt damage) was 5.2 and the “Dunnett's multiple comparisons test UC VS MFG-E8, Summary (body weight)” value ([4]; Day 7) was “ns”. The “Dunnett's multiple comparisons test UC VS MFG-E8, Summary (body weight)” value ([4]; Day 8) was “ns”, the “Dunnett's multiple comparisons test UC VS MFG-E8, Summary (body weight)” value ([4]; Day 9) was “ns” and the “Dunnett's multiple comparisons test UC VS MFG-E8, Summary (body weight)” value ([4]; Day 10) was “ns”. For the same molecule, the “Dunnett's multiple comparisons test UC VS MFG-E8, Summary (body weight)” value ([4]; Day 11) was “ns” and the “colon length shrinkage suppression effect compared with the non-administration control group” value [5] was “statistically significant increase in the colon length shrinkage suppression effect”.
